Data on 23 compounds can be found in PMC11533140 (Frontiers in Pharmacology, 2024).

One data set has as its system A2780 cells. The data set can be described thus: MTT antiproliferative assay, A2780. The class given is cell-based. The note with it: Homo sapiens. On the procedure:
(§1) The in vitro inhibition assays of all final compounds against PI3K were performed by Shanghai ChemPartner Co., Ltd. (China). The antiproliferative activities of the compounds against A2780, U87MG, MCF7, and DU145 cell lines were tested by the standard MTT method. CHO cells stably expressing the transcript of hERG were investigated by the automated whole-cell patch clamp technique, using the QPatch system (Sophion). The compound was tested with Salmonella typhimurium strains TA98 and TA100 with the plate incorporation method at seven doses. Apoptosis was evaluated using the One-Step TUNEL Apoptosis Assay Kit (FITC) (cat. no. MA0223; Meilunbio, Dalian, China), according to the manufacturer’s protocol. Male and female SD rats (SLRC Laboratory Animal Inc., Shanghai, China) were used, and the detailed pharmacokinetic procedures are described in Supplementary Material.
A general note: Formazan colour is commonly taken as a measure of viable cells.

Another data set deals with U87MG cells. The data set can be described thus: MTT antiproliferative assay, U87MG. The class given is cell-based. The note with it: for IC50: Homo sapiens, U-87 MG. The protocol:
as §1

For a further data set, the system named is DU145 cells. The data set is described as follows: MTT antiproliferative assay, DU145. The class given is cell-based. The note with it: for IC50: Homo sapiens, DU-145. On the procedure:
as §1

In another data set the test system is MRC-5 cells. The data set can be described thus: inhibitory activity on normal cells, MRC-5. The class given is cell-based. The note with it: Homo sapiens, MRC5. The text has this:
(§2) Several clinical PI3K candidates were severely intolerable to patients due to fatal hepatotoxicity and, thus, failed in clinical trials. Thus, evaluating the selectivity of compounds toward normal cells might reduce the risk of clinical failure of new compounds.

For a further data set, the system named is HL-7702 cells. The data set is described as follows: inhibitory activity on normal cells, HL-7702. The note with it: Homo sapiens, L02. The class given is cell-based.
Text: as §2

In data set [1] the test system is Salmonella typhimurium TA98. The data set can be described thus: Ames test, plate incorporation, TA98. The class given is cell-based. Conditions: control, dose not given. The protocol:
as §1
(§3) S. typhimurium TA98 and TA100 were selected to conduct the Ames experiment to investigate the genotoxicity risk of compound 17p.
A general note: The Ames test uses bacterial strains that need an amino acid and regain growth without it when mutated back.

For another data set, the system named is MCF7 cells. The data set is described as follows: MTT antiproliferative assay, MCF7. The class given is cell-based. Conditions: Homo sapiens. On the procedure:
as §1

The subject of data set [2] is Salmonella typhimurium TA100. The data set is described as follows: Ames test, plate incorporation, TA100. The note with it: control, dose not given. The class given is cell-based. On the procedure: as §1, §3
The next data set concerns the target T1, hERG (Homo sapiens, UniProt Q12809).
T1 construct: expressed in transfected cells
The data set can be described thus: hERG automated whole-cell patch clamp (QPatch), CHO cells. The class given is cell-based. The note with it: human, CHO cells stably expressing hERG; CHO cells expressing hERG, patch clamp; read-out: IC50 on hERG potassium currents. The protocol: as §1
To evaluate cardiotoxicity, it is necessary to test inhibitory activity on hERG potassium currents.
(The hERG channel carries a current that helps repolarise heart muscle cells.)

Another data set has as its target PI3Kα (Homo sapiens, UniProt P42336). The data set is described as follows: in vitro PI3Kα kinase inhibition assay. The class given is biochemical. The protocol: as §1
A further data set has as its target mTOR (Homo sapiens, UniProt P42345). The data set can be described thus: in vitro mTOR inhibition assay (selectivity). The class given is biochemical. The note with it: Table 4. The protocol: as §1
The next data set concerns the target PI3Kδ (Homo sapiens, UniProt O00329). The data set can be described thus: in vitro PI3Kδ inhibition assay (isoform selectivity). Conditions: Table 4. The class given is biochemical. On the procedure:
as §1

Another data set deals with PI3Kγ (Homo sapiens, UniProt P48736). The data set can be described thus: in vitro PI3Kγ inhibition assay (isoform selectivity). The class given is biochemical. The note with it: Table 4. The protocol: as §1
In another data set the target is PI3Kβ (Homo sapiens, UniProt P42338). The data set is described as follows: in vitro PI3Kβ inhibition assay (isoform selectivity). The class given is biochemical. The note with it: Table 4. On the procedure: as §1
Setting [3] is: mean of three independent experiments, read-out: IC50 against PI3Kα.
[4] abbreviates: mean of three independent experiments.
[5] abbreviates: Figure 5 activity bins, read-out: IC50 range in SAR figure (PI3Kα).
Where [6] appears, read: Table 4, read-out: IC50 PI3Kα (isoform selectivity study).
Where [7] appears, read: Figure 5 activity bins, read-out: weak activity IC50 in SAR figure (PI3Kα).

Read-outs that look alike come from different tables or passages of the source. A value given as a limit tells only on which side of the number the result lay.

Sequence of PI3Kα (P42336 whole entry): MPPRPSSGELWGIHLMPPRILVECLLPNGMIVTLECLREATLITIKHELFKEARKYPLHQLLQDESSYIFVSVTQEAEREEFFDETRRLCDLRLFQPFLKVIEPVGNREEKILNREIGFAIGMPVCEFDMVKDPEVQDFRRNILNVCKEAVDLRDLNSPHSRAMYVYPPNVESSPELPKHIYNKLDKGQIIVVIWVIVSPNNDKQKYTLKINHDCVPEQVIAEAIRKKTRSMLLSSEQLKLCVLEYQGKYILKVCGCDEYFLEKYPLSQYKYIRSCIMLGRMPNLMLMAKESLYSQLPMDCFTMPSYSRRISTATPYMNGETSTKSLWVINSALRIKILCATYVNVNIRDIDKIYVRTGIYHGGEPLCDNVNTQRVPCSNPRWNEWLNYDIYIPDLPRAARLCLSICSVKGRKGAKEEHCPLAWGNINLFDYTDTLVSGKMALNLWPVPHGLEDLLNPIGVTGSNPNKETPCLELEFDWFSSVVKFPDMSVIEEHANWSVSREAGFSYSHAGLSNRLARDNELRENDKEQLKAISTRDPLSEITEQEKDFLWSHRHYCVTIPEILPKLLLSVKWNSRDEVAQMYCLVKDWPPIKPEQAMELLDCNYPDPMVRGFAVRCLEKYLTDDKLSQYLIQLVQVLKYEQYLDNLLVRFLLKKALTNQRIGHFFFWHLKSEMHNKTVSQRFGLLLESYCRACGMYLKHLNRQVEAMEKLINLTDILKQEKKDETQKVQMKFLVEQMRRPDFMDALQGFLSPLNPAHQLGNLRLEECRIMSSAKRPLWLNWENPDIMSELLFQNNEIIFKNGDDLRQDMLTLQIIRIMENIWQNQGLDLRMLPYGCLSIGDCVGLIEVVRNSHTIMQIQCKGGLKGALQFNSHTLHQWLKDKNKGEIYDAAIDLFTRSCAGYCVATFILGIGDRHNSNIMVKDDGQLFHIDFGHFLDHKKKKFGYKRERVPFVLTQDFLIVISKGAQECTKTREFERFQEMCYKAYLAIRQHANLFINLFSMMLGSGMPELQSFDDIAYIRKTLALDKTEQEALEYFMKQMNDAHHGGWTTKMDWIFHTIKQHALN
Sequence of PI3Kα (P27986 whole entry partner): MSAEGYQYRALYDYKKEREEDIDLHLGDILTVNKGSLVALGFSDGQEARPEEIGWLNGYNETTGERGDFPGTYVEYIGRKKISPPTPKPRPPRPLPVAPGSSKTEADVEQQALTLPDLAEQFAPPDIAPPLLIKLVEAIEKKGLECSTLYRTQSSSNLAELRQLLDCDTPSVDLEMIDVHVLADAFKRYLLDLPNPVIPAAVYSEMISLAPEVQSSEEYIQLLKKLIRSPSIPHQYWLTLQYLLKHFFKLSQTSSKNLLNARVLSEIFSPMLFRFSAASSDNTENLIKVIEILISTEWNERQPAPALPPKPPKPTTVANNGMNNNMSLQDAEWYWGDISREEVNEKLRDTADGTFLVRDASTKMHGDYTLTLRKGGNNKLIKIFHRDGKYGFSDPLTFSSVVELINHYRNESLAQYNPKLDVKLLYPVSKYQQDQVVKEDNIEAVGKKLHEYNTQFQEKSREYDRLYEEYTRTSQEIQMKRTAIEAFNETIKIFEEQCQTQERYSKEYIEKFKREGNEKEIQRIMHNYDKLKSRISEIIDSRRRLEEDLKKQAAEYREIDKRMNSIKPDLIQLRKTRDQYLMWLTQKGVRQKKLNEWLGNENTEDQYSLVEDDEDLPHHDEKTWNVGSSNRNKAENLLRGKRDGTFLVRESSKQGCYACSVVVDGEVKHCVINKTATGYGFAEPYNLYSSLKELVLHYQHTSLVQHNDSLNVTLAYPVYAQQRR
Sequence of PI3Kδ (O00329 whole entry, canonical isoform): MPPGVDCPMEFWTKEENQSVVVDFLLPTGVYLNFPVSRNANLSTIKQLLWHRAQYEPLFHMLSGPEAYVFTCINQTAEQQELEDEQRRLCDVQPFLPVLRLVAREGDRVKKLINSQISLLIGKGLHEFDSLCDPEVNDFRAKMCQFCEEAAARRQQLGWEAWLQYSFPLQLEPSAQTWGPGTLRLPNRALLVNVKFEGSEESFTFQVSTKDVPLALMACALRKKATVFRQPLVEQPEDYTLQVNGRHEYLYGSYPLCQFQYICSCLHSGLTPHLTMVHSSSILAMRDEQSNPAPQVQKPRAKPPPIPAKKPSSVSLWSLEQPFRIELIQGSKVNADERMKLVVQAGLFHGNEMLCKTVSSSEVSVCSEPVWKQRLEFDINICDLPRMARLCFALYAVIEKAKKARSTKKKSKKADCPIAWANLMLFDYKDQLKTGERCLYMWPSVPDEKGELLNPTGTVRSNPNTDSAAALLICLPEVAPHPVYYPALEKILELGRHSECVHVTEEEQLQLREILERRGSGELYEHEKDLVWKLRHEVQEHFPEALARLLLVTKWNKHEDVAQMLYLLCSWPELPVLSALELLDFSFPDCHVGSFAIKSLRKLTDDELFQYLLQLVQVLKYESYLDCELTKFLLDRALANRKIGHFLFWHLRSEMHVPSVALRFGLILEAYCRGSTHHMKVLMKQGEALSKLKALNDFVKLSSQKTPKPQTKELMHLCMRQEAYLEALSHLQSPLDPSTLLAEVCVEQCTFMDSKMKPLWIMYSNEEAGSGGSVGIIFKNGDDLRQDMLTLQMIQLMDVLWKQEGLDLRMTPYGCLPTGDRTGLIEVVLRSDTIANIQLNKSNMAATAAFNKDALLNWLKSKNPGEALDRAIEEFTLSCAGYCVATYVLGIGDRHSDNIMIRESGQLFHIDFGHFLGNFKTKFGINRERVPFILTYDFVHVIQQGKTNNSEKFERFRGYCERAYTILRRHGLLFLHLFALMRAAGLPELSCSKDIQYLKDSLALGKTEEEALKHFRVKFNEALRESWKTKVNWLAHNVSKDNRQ
Sequence of PI3Kδ (P27986 whole entry partner, canonical isoform): as the sequence (P27986 whole entry partner) above
Sequence of PI3Kγ (P48736 whole entry, canonical isoform): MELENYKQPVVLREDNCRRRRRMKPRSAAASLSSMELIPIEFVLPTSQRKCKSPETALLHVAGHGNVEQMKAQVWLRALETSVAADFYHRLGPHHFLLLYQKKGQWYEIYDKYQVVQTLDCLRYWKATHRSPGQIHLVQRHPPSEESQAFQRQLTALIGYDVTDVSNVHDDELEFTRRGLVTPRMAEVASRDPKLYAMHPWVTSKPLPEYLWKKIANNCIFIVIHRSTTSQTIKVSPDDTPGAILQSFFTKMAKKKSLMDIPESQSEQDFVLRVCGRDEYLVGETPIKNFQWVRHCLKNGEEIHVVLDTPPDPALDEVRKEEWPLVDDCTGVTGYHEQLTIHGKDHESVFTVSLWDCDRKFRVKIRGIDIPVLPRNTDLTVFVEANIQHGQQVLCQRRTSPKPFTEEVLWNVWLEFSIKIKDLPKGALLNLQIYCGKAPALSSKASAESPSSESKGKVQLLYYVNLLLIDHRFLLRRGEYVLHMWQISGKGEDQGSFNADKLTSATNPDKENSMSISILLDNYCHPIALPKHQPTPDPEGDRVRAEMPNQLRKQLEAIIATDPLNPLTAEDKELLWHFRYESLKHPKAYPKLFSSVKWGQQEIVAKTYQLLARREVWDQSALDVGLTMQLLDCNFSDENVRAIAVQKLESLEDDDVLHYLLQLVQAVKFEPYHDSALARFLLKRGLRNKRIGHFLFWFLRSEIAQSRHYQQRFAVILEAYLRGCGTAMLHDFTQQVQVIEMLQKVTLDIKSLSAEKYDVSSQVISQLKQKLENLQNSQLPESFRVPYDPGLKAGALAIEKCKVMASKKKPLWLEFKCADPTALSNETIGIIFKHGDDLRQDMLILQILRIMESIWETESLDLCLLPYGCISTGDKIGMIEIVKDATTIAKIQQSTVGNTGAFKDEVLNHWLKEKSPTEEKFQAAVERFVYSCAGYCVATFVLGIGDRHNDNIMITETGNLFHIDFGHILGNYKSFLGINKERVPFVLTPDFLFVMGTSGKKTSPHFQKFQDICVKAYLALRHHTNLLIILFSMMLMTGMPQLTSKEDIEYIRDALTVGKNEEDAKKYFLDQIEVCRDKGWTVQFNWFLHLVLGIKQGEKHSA
Sequence of PI3Kβ (P42338 whole entry, canonical isoform): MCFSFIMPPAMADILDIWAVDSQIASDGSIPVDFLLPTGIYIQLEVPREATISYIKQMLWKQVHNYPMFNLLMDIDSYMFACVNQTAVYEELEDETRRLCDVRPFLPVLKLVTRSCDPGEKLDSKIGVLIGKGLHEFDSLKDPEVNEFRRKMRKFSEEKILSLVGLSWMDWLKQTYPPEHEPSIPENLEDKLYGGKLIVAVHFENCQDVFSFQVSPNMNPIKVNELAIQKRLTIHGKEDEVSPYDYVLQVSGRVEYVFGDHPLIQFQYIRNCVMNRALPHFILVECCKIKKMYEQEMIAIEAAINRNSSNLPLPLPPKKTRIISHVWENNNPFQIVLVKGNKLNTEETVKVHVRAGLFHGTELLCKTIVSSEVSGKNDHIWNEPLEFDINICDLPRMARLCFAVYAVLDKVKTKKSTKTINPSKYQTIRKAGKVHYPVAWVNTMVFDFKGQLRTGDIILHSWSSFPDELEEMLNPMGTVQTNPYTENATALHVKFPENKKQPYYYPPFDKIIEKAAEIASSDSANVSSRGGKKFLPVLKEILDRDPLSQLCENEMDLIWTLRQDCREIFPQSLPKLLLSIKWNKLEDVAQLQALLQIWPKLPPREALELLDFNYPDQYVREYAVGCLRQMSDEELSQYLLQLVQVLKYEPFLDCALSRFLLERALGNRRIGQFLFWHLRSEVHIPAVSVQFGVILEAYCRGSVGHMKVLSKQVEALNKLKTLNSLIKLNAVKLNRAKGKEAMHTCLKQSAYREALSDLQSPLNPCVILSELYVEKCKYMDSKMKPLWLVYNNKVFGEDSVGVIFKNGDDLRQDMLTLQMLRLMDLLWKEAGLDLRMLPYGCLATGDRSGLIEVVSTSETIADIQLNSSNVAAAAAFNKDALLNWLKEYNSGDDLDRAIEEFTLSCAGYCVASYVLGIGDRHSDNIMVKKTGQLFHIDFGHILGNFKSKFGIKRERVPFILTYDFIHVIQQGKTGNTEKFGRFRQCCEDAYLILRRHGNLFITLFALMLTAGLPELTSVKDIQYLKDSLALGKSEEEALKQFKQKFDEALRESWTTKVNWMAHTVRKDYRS
Sequence of PI3Kβ (P27986 whole entry partner, canonical isoform): as the sequence (P27986 whole entry partner) above

Turning to `Nc1cc(C(F)(F)F)c(-c2cc(N3CCOCC3)nc(N3CCOCC3)n2)cn1` [BKM-120, Buparlisib, reference compound], the half-inhibitory concentration (IC50) was found to be 0.41 ± 0.06 µM in the data set with A2780 cells; 2.15 ± 0.19 µM in the data set on U87MG cells; 2.24 ± 0.14 µM with DU145 cells; 0.98 ± 0.1 µM in the data set on MRC-5 cells; 0.89 ± 0.06 µM with HL-7702 cells; 0.28 ± 0.04 µM with MCF7 cells. The “Number of bacterial colony revertant mutations (mean ± SD) TA98” value in data set [1] stood at 241 ± 55. In addition, the “Number of bacterial colony revertant mutations (mean ± SD) TA100” value in data set [2] turned out to be 555 ± 94.

Consider `COc1cc(N)c(Cl)cc1C(=O)NC1CCN(CCCOc2ccc(F)cc2)CC1OC` (stereo not shown) [Cisapride, reference compound], for which the IC50 at hERG amounted to 0.41 ± 0.06 µM.

For the compound `CCOC(=O)C1CCN(c2cc(-c3cnc(N)cc3C(F)(F)F)nc(N3CCOCC3)n2)CC1` [Compound 12a], on PI3Kα (setting [3]), the concentration for half-maximal inhibition (IC50) worked out at 2.29 µM.

For the compound `CCOC(=O)C1CCN(c2nc(-c3cnc(N)cc3C(F)(F)F)cc(N3CCOCC3)n2)CC1` [Compound 12b], on PI3Kα (setting [3]), the half-maximal inhibitory concentration (IC50) turned out to be 0.685 ± 0.0626 µM.

With `c1nn(C2CCNCC2)cc1-c1cc(N2CCOCC2)nc(N2CCOCC2)n1` [Compound 12c], the “IC50 against PI3Kα” value against PI3Kα (setting [4]) is “no activity”. In addition, the IC50 on PI3Kα (setting [3]) was over 10 µM.

As to `COc1ccc(-c2cc(N3CCOCC3)nc(N3CCOCC3)n2)cn1` [Compound 12d], at PI3Kα (setting [4]), the “IC50 against PI3Kα” value is listed as “poor activity”. For the same compound, the IC50 at PI3Kα (setting [3]) is 1.01 µM.

For the compound `c1nn(C2CCNCC2)cc1-c1nc(N2CCOCC2)nc(N2CCOCC2)n1` [Compound 12e], the “IC50 against PI3Kα” value against PI3Kα (setting [4]) was “no activity”. Besides, the half-inhibitory concentration (IC50) on PI3Kα (setting [3]) was over 10 µM.

As to `CCOC(=O)C1CCN(c2nc(-c3cnc(N)cc3C(F)(F)F)nc(N3CCOCC3)n2)CC1` [Compound 12f], the IC50 on PI3Kα (setting [3]) is 0.371 ± 0.0454 µM.

Take `N#Cc1c(-c2cn[nH]c2)nc(N2CCOCC2)nc1N1CCOCC1` [Compound 17a]: the half-maximal inhibitory concentration (IC50) on PI3Kα (setting [5]) was 0.03 to 0.3 µM; at PI3Kα (setting [3]) it was 0.162 ± 0.0131 µM.

For `N#Cc1c(-c2cccc3[nH]ncc23)nc(N2CCOCC2)nc1N1CCOCC1` [Compound 17b], the IC50 at PI3Kα (setting [5]) was 0.03 to 0.3 µM; on PI3Kα (setting [3]) it was 0.254 ± 0.0269 µM.

For `Cc1nn(C)cc1-c1nc(N2CCOCC2)nc(N2CCOCC2)c1C#N` [Compound 17c], the IC50 on PI3Kα (setting [3]) was 1.36 µM.

Turning to `N#Cc1c(-c2cnn(C3CCNCC3)c2)nc(N2CCOCC2)nc1N1CCOCC1` [Compound 17d], on PI3Kα (Figure 5 activity bins), the “IC50 range in SAR figure (PI3Kα)” value is listed as “no activity”. In addition, the IC50 at PI3Kα (setting [3]) was over 10 µM.

Consider `N#Cc1c(-c2cccc(O)c2)nc(N2CCOCC2)nc1N1CCOCC1` [Compound 17e], for which the half-maximal inhibitory concentration (IC50) against mTOR is over 10 µM; with A2780 cells it was 0.39 ± 0.03 µM; in the data set with U87MG cells, 1.75 ± 0.22 µM; with DU145 cells, 1.52 ± 0.11 µM; on PI3Kδ it was 0.0556 ± 0.0038 µM; in the data set on MRC-5 cells, 2.19 ± 0.11 µM. Besides, the IC50 in the data set with HL-7702 cells is 6.17 ± 0.75 µM; with MCF7 cells, 0.37 ± 0.03 µM; at PI3Kα (setting [5]), 0.03 to 0.3 µM; on PI3Kα (setting [6]) it was 0.0861 ± 0.0078 µM; at PI3Kα (setting [3]), 0.0885 ± 0.0061 µM; at PI3Kγ it was 0.318 ± 0.019 µM. Also, half-maximal inhibition on PI3Kβ (IC50) was put at 0.152 ± 0.0187 µM.

Take `N#Cc1c(-c2ccc(O)cc2)nc(N2CCOCC2)nc1N1CCOCC1` [Compound 17f]: the figures for the half-maximal inhibitory concentration (IC50) at PI3Kα (setting [5]) and at PI3Kα (setting [3]) were 0.4 to 0.8 µM and 0.473 ± 0.0283 µM, respectively.

For `COc1cccc(-c2nc(N3CCOCC3)nc(N3CCOCC3)c2C#N)c1` [Compound 17g], the 50% inhibitory concentration (IC50) is over 1 µM at PI3Kα (setting [7]) and 3.27 µM on PI3Kα (setting [3]).

For `N#Cc1c(-c2ccc(N)cc2)nc(N2CCOCC2)nc1N1CCOCC1` [Compound 17h], the 50% inhibitory concentration (IC50) at PI3Kα (setting [5]) was 0.4 to 0.8 µM; on PI3Kα (setting [3]) it was 0.477 ± 0.0524 µM.

With `N#Cc1c(-c2cccnc2)nc(N2CCOCC2)nc1N1CCOCC1` [Compound 17i], the IC50 at PI3Kα (setting [5]) is 0.4 to 0.8 µM; on PI3Kα (setting [3]), 0.792 ± 0.0877 µM.

`N#Cc1c(-c2ccncc2)nc(N2CCOCC2)nc1N1CCOCC1` [Compound 17j]: the values for the half-inhibitory concentration (IC50) at PI3Kα (setting [7]) and at PI3Kα (setting [3]) were over 1 µM and 3.04 µM, respectively.

Turning to `N#Cc1c(-c2ccc(N)nc2)nc(N2CCOCC2)nc1N1CCOCC1` [Compound 17k], the IC50 on PI3Kα (setting [5]) is 0.03 to 0.3 µM; on PI3Kα (setting [3]) it was 0.159 ± 0.0144 µM.

As for `Cc1cc(N)ncc1-c1nc(N2CCOCC2)nc(N2CCOCC2)c1C#N` [Compound 17l], the 50% inhibitory concentration (IC50) on PI3Kα (setting [5]) was 0.4 to 0.8 µM; on PI3Kα (setting [3]) it was 0.443 ± 0.0397 µM.

Consider `N#Cc1c(-c2cnc(N)cc2C(F)(F)F)nc(N2CCOCC2)nc1N1CCOCC1` [Compound 17m], for which the concentration for half-maximal inhibition (IC50) in the data set on A2780 cells is 2.72 ± 0.19 µM; in the data set with U87MG cells, 66.1 ± 9.94 µM; with DU145 cells, 12.4 ± 1.47 µM; in the data set with MCF7 cells, 1.07 ± 0.09 µM; at PI3Kα (setting [5]), 0.03 to 0.3 µM; on PI3Kα (setting [3]) it was 0.104 ± 0.0125 µM. Moreover, the “IC50 U87MG” value in the data set on U87MG cells is given as “no inhibitory effects”. For the same compound, the “IC50 DU145” value in the data set on DU145 cells was “no inhibitory effects”.

As to `N#Cc1c(-c2cncnc2)nc(N2CCOCC2)nc1N1CCOCC1` [Compound 17n], the values for the 50% inhibitory concentration (IC50) at PI3Kα (setting [5]) and on PI3Kα (setting [3]) were 0.4 to 0.8 µM and 0.604 ± 0.103 µM, respectively.

As to `CNc1ncc(-c2nc(N3CCOCC3)nc(N3CCOCC3)c2C#N)cn1` [Compound 17o], the IC50 turned out to be 0.204 ± 0.0301 µM against mTOR; 1.13 ± 0.1 µM in the data set on A2780 cells; 4.19 ± 0.53 µM with U87MG cells; 5.05 ± 0.47 µM with DU145 cells; 0.204 ± 0.0222 µM against PI3Kδ; 1.16 ± 0.12 µM with MCF7 cells. For the same compound, the half-inhibitory concentration (IC50) is 0.03 to 0.3 µM on PI3Kα (setting [5]); 0.0347 ± 0.0046 µM on PI3Kα (setting [6]); 0.0347 ± 0.0021 µM at PI3Kα (setting [3]); 0.176 ± 0.0159 µM on PI3Kγ; 0.176 ± 0.0263 µM against PI3Kβ.

For orientation: IC50 means the point on the concentration scale where inhibition reaches its midpoint.
